Results taken from doi:10.1101/2021.04.08.439011v1 (biorxiv, 2021).

Experiments:
[1] = biological target: RSK3(Kin.Dom.1-N-terminal) (Homo sapiens, UniProt Q15349); settings: 0.1 µM; binder
[2] = biological target: JAK1(JH1domain-catalytic) (Homo sapiens, UniProt P23458); settings: 0.1 µM; binder
[3] = biological target: RSK1(Kin.Dom.2-C-terminal) (Homo sapiens, UniProt Q15418); settings: 0.1 µM; binder
[4] = biological target: RSK2(Kin.Dom.1-N-terminal) (Homo sapiens, UniProt P51812); settings: 0.1 µM; binder
Chain of RSK2(Kin.Dom.1-N-terminal) (P51812 whole entry): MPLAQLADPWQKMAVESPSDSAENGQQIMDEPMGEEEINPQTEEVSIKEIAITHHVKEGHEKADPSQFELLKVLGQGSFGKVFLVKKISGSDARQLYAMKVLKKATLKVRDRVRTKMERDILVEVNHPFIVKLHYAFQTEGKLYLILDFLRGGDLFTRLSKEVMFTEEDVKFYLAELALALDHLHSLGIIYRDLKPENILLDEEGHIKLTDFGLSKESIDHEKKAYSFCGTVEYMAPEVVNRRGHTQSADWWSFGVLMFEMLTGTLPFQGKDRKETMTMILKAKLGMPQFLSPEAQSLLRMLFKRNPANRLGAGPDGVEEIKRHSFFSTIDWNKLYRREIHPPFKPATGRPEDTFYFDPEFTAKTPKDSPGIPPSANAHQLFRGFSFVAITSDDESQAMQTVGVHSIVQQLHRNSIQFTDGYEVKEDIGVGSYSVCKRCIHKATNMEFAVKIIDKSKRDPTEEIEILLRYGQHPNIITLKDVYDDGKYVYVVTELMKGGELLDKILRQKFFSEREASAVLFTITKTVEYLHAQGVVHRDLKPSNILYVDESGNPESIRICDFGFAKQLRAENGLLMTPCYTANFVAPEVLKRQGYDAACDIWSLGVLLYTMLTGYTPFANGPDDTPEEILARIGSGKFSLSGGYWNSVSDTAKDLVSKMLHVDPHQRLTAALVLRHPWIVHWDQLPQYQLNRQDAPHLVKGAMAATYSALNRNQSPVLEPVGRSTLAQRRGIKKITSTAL

[5] = biological target: JAK2(JH1domain-catalytic) (Homo sapiens, UniProt O60674); settings: 0.1 µM; binder
Chain of JAK2(JH1domain-catalytic) (O60674 whole entry): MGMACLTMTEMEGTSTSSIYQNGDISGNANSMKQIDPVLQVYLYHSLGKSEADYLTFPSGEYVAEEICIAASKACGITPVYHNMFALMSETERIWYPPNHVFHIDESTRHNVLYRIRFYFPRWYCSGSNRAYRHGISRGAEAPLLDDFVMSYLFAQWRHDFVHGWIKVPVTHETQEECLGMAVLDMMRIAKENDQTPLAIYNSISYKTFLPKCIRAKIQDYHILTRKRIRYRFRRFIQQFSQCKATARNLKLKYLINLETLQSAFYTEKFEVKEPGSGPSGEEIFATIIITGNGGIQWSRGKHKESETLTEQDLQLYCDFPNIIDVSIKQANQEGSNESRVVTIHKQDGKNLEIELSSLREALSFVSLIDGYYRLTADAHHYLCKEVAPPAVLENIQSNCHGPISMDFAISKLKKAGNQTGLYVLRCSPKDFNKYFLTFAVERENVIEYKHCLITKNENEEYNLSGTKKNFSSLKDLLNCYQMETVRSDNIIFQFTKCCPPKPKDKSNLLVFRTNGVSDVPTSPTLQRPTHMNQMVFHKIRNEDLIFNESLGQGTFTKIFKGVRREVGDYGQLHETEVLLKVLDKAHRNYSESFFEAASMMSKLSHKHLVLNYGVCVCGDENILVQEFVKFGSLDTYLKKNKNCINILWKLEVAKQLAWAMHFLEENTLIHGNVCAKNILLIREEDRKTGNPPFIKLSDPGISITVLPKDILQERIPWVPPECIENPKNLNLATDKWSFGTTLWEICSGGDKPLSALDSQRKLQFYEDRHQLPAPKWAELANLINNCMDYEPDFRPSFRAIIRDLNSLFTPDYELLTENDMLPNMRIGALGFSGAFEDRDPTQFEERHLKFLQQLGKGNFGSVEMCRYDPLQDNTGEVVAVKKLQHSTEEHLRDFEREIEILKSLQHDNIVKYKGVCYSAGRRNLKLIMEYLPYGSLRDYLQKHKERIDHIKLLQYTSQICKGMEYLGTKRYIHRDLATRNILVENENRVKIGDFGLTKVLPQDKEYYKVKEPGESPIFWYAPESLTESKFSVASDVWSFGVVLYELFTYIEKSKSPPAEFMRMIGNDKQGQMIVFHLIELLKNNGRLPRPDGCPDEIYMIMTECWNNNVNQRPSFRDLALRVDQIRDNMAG

PKNB (M. tuberculosis) = PKNB (M. tuberculosis) (Mycobacterium tuberculosis, UniProt P9WI81); settings: 1 µM; binder
Chain of PKNB (M. tuberculosis) (P9WI81 whole entry): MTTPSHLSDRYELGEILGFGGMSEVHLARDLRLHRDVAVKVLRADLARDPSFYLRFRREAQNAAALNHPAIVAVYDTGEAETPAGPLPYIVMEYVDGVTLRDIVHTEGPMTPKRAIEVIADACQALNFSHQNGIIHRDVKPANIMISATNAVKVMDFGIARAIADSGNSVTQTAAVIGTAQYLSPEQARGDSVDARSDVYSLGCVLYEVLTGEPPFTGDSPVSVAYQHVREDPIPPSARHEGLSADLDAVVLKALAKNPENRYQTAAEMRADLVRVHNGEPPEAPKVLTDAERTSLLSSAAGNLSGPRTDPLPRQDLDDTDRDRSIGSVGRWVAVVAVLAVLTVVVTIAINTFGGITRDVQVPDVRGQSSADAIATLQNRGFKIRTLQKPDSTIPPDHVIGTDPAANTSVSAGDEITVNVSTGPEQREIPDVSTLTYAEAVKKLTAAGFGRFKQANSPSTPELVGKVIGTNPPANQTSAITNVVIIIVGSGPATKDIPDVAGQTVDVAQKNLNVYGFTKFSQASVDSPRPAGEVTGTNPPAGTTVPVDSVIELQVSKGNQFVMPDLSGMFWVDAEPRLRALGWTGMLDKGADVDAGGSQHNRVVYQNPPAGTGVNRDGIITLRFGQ

Chain of JAK1(JH1domain-catalytic) (P23458 whole entry): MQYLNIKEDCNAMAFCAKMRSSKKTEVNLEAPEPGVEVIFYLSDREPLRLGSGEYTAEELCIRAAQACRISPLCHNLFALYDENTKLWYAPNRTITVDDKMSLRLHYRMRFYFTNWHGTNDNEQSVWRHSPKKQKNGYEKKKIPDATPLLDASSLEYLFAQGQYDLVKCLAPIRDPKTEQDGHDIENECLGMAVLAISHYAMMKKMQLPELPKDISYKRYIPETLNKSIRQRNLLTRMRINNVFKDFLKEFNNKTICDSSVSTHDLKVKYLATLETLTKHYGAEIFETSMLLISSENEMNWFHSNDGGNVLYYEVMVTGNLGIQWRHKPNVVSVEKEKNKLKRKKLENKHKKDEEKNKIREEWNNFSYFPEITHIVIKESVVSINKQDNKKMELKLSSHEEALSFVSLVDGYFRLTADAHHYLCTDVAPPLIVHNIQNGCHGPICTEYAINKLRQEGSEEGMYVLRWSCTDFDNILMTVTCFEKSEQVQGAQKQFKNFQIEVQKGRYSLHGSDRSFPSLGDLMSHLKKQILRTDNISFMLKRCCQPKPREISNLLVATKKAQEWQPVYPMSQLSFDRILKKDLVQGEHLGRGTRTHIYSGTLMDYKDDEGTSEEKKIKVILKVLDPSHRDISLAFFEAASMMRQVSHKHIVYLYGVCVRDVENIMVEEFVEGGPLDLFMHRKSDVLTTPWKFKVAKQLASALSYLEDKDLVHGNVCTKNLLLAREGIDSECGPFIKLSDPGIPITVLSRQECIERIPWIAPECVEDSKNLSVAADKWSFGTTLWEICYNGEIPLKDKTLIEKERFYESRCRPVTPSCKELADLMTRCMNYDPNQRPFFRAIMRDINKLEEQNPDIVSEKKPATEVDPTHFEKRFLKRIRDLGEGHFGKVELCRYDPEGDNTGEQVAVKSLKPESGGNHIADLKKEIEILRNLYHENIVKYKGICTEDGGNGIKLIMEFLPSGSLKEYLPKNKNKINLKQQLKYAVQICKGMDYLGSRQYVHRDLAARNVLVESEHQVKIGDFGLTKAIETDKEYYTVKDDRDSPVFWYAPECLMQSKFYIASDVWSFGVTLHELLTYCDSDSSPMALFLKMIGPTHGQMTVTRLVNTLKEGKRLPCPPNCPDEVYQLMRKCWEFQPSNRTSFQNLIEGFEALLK
Chain of RSK1(Kin.Dom.2-C-terminal) (Q15418 whole entry): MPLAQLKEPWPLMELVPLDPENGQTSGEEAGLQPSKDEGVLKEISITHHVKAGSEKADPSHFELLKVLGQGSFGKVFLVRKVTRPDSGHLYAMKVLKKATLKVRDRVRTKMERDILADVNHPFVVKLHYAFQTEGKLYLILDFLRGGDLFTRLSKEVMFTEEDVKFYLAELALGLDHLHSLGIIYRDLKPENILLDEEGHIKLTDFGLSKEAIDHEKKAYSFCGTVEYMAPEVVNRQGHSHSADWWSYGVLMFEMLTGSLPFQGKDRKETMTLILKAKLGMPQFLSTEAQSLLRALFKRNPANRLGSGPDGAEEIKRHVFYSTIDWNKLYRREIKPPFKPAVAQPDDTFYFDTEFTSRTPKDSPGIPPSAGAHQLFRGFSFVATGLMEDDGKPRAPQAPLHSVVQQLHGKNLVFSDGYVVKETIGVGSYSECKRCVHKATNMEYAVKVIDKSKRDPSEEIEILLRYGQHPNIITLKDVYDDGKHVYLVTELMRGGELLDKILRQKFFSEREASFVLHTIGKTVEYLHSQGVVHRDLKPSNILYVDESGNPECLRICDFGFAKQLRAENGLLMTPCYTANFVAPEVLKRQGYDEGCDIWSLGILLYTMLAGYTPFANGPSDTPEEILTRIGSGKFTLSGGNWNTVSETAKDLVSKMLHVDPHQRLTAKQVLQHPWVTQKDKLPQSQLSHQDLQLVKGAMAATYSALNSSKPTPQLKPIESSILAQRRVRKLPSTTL

CNc1ncc2cc(-c3ccc(-c4cccc(C)n4)cc3Cl)c(=O)n(C[C@H]3OC[C@H](N)CO3)c2n1 [compound 6, G-5555]
Percent Control [1]: 100%
Percent Control [2]: 100%
Percent Control [3]: 100%
Percent Control [4]: 94%
Percent Control [5]: 99%
Percent Control (PKNB (M. tuberculosis)): 51%
